One data set relates to DIO C57BL/6 male mice. The class given is in vivo, mouse. The settings on record: 0.5 mg/kg i.p. How it is done: A dedicated study was conducted under contract at the University of Buckingham Institute of Translational Medicine (Pr. M A Cawthorne, Pr. P Trayhurn, Dr. C. Stocker) to assess the energetic and metabolic responses to the APT-110 miR-22-3p inhibitor treatment in adult Diet-Inducted-Obese (DIO) C57BL/6 male mice over the course of 3 months. Twenty-four DIO male C57BL/6 mice, who started on 60% high fat diet at the age of 7 weeks, were purchased at 15 weeks of age from the Jackson Laboratory, USA. The mice remained on a 60% high fat diet (Research Diet D12492) throughout the experiment. The mice were kept on a 12 h light/12 h dark light cycle with lights on at 08h00 and at a room temperature of 25±1° C. The mice were allocated to 2 groups of 12 mice each, (2 mice/cage) so that mean and standard deviation for body weight, blood glucose and serum insulin were similar across both groups. Mice were acclimated for two weeks before treatment initiation.
For oral glucose tolerance test, food was removed six hours prior to the start of the glucose tolerance test (09h00) and animals were placed in clean cages. Mice were dosed with glucose at T=0 minutes. Glucose was dissolved in water and given to the mice by oral gavage at a dose of 2.5 g/kg p.o. Blood samples […] were taken from the cut tip of the tail after the application of Lidocaine gel (Biorex Laboratories UK) for the analysis of glucose concentration at −30, 0, 30, 60, 120 and 180 minutes relative to glucose administration. Blood samples were also taken at −30 and +30 minutes for insulin analysis (Crystal Chem Inc. Cat INS90090). Food was returned to the animals at the end of the glucose tolerance test. Plasma nonesterified Fatty Acids (NEFA, Crystal Wako Chemicals Gmbh, Neuss, Germany, Cat 999-75406), leptin (Crystal Chem. Inc., Cat LEP90030) and adiponectin (Alpco Diagnostics, Salem, New Hampshire, Cat 47-ADPMS-E01) were measured as per the manufacturers' recommendations. Body fat and lean content was measured by Nuclear Magnetic Resonance (NMR). Comparison with calibrated standards allowed identification of types of tissue by their density. Dedicated software was used to quantify amounts of adipose and […]. The mice were gently restrained, sufficient to keep them quiescent during this non-invasive technique.
To measure physical activity, mice were kept in their original cages of 2 mice per cage. Recordings were taken using an infra-red recorder linked to a laptop. Recordings were made on the hour every hour from 7 pm until 8 am. Each recording was of 10-minute duration. Lights went out at 8 pm and came on again at 8 am. Analysis of activity was done by virtually drawing 2 lines across each cage (thus dividing them into 3 equal parts). Recordings were analyzed by eye and the number of times a line was broken by a mouse in each 10-minute segment was scored. Energy expenditure was measured at several time points during the course of the study by open-circuit indirect calorimetry with mice kept in their home cages (6 cages of 2 mice per experimental group (Arch, J. R., et al., 2006; Arch, J. R. and P. Trayhurn, 2013).
At the end of the study, tissues and organs were collected, then frozen for future gene expression analysis or placed in 10% neutral buffered formalin solution (Sigma-Aldrich Cat HT501128), then washed in PBS, pH 7.4 and transferred to 70% ethanol for subsequent processing for histologic and immunohistochemistry analyses.
In some studies, non-esterified fatty acids (NEFA), plasma leptin and adiponectin were also measured and oral glucose tolerance tests (OGTT) were performed. Oral glucose tolerance test was performed as follows: Six hours prior to the start of the glucose tolerance test (09h00), food was removed and animals were given clean cages. Mice were dosed with glucose at T=0 minutes. […]

For data set [1] the following is noted: Saenger 1989; cited from earlier work.
Data set [2] deals with human subcutaneous adipocytes. As to the kind of experiment: O2 consumption rate (OCR), Seahorse XF24 with XF Palmitate-BSA Fatty Acid Oxidation kit, human subcutaneous adipocytes. The class given is cell-based. How it is done:
To characterize the effects of miR-22-3p inhibition on energy utilization in human subcutaneous adipocytes in culture, O2 consumption rate (OCR) was measured with the XF24 Analyzer (Seahorse Bioscience) using the XF Palmitate-BSA Fatty Acid Oxidation substrate kit during the successive addition of Oligomycin, FCCP, and Antimycin/Rotenone, following the manufacturer instructions.
Human subcutaneous pre-adipocytes (ZenBio, NC) were seeded into 96-well plates and differentiated for 7 days, then placed in maintenance medium according to the manufacturer's instructions. On Day 14, the adipocytes were transfected with 50 nM of the miR-22-3p inhibitor APT-110. Medium was exchanged every 2 to 3 days and Seahorse assay was performed on Day 21. Negative control was bovine serum albumin (BSA) and positive control was 100 nM rosiglitazone throughout the culture.

Data set [3] deals with human subcutaneous adipocytes. As to the kind of experiment: Mitochondrial content/mass by MitoTracker in human subcutaneous adipocytes. The class given is cell-based. The settings on record: Day 14; Rosiglitazone 100 nM. How it is done:
To assess the effects of miR-22 inhibition on mitochondrial mass and activity, metabolic rate and energy expenditure, in vitro and in vivo experiments were carried out. In vitro intra-cellular assessment of mitochondrial mass and activities, as well as energy expenditure during miR-22 inhibition of human subcutaneous adipocytes were examined. In the model of primary culture of human subcutaneous adipocytes differentiated for 3 days, then transfected with 50 nM of the miR-22-3p inhibitor APT-110 and maintained in culture (n=6 per condition), the following parameters were assessed on Day 14.
(§1) Human subcutaneous preadipocytes purchased from ZenBio, NC (Catalog #: SP-F-SL) were plated at confluence in 96-well plates and allowed to attach overnight in preadipocyte medium (DMEM/Ham's F-12 (1:1, v/v), HEPES buffer, fetal bovine serum and antibiotics) following the supplier's instructions. […] Using a 96-well format, gene expression was determined by q-RT-PCR kit following the Manufacturer's instructions (TaqMan Gene Expression Cells-to-Ct kit, Life Technologies, cat #AM1728) and a 7900 HT Fast Real Time PCR System (Applied Biosystems). […] Mitochondrial mass and activity as well as UCP-1 protein expression were determined by high content imaging (ArrayScan XTI and BMG Fluostar Galaxy reader), with UCP-1 antibody (abcam cat #ab10983), and MitoTracker® Deep Red FM (ThermoFisher M22426).

The subject of data set [4] is UCP-1 protein expression in human subcutaneous adipocytes. The data set can be described thus: UCP-1 protein expression by immunofluorescence in human subcutaneous adipocytes. The class given is cell-based. The settings on record: Day 14; 50 nM APT-110 or 100 nM rosiglitazone; PBS 48±3%. The procedure:
To assess the effects of miR-22 inhibition on mitochondrial mass and activity, metabolic rate and energy expenditure, in vitro and in vivo experiments were carried out. In vitro intra-cellular assessment of mitochondrial mass and activities, as well as energy expenditure during miR-22 inhibition of human subcutaneous adipocytes were examined. In the model of primary culture of human subcutaneous adipocytes differentiated for 3 days, then transfected with 50 nM of the miR-22-3p inhibitor APT-110 and maintained in culture (n=6 per condition), the following parameters were assessed on Day 14. […]
as §1

We go through five compounds from US12286625B2, “Inhibition of mir-22 miRNA by APT-110” (AptamiR Therapeutics, Inc., priority 2016, dated 2025).

Usually pKa stands for the negative logarithm of the acid dissociation constant.

Read-outs that look alike come from different tables or passages of the source.

As for `C[C@H](Cc1ccc2c(c1)OC(C(=O)[O-])(C(=O)[O-])O2)NC[C@H](O)c1cccc(Cl)c1.[Na+].[Na+]` [CL316243, reference compound], the “energy expenditure after i.p. injection” value with DIO C57BL/6 male mice (APT-110 group) and with DIO C57BL/6 male mice (control (saline) group) was “increased” throughout.

`Nc1nc2c(ncn2[C@@H]2O[C@H](CO)[C@@H](O)[C@H]2O)c(=O)[nH]1` [guanosine]: in data set [1], the pKa is given as 9.42.

On to `Cc1cn([C@H]2C[C@H](O)[C@@H](CO)O2)c(=O)[nH]c1=O` [thymidine], for which the pKa in data set [1] was 9.93.

On to `Nc1ncnc2c1ncn2[C@@H]1O[C@H](CO)[C@@H](O)[C@H]1O` [adenosine], for which, in data set [1], the “pKa of the conjugate acid” value is reported as 3.52.

For the compound `CN(CCOc1ccc(CC2SC(=O)NC2=O)cc1)c1ccccn1` (stereo not drawn) [Rosiglitazone, reference compound], in data set [2] (after FCCP, rosiglitazone 100 nM), the “maximum respiration vs control” value is 4 fold. Also, the “basal OCR vs control adipocytes” value in data set [2] (basal conditions, rosiglitazone 100 nM or APT-110 50 nM, control BSA) is 4 fold. Moreover, in data set [3], the “cell density relative to miR-22-3p inhibitor condition” value is reported as 3 times more cells. Also, the “number of UCP1 positive cells” value in data set [4] turned out to be 58±2%.
